Measured values published in patent publication US20110070190A1 (Roche Palo Alto LLC, priority 2009, published 2011).

Columns and labels:
[1] = target: T1, HCV polymerase (NS5B570n-Con1) (Hepatitis C virus genotype 1b, UniProt Q9WMX2); assay: HCV NS5B RNA polymerase activity (incorporation of radiolabeled nucleotide into acid insoluble RNA); type: biochemical, HCV Con1 strain
T1 construct: a 21 amino acid C-terminal deletion of full-length HCV polymerase; made in house; host or cells: E. coli BL21(DE3) pLysS, plasmid pET17b
Procedure: The enzymatic activity of HCV polymerase (NS5B570n-Con1) was measured as the incorporation of radiolabeled nucleotide monophosphates into acid insoluble RNA products. Unincorporated radiolabeled substrate was removed by filtration and scintillant was added to the washed and dried filter plate containing radiolabeled RNA product. The amount of RNA product generated by NS5B570n-Con1 at the end of the reaction was directly proportional to the amount of light emitted by the scintillant.
The HCV polymerase used in the enzymatic activity assay is a 21 amino acid C-terminal deletion of full-length HCV polymerase derived from HCV Con1 strain, genotype 1b (GenBank accession number AJ242654) (NS5B570n-Con1). The NS5B570n-Con1 was sub-cloned downstream to the T7 promoter of the plasmid expression construct pET17b and transformed into E. coli strain BL21(DE3) pLysS for protein expression. A single colony was used to start an innoculum for a 10 L culture in LB media supplemented with 100 μg/mL ampicillin at 37° C. Protein expression was induced by the addition of 0.25 mM isopropyl-β-D-thiogalactopyranoside (IPTG) when the optical density of the culture at […] was 0.8. Induction of protein expression was carried out at 30° C. for 16 h after which the cells were harvested by centrifugation. NS5B570n-Con1 was purified to homogeneity using a three-column purification protocol including subsequent column chromatography on Ni-NTA, SP-Sepharose HP and Superdex 75 resins.
Enzymatic reactions in the presence of cIRES RNA template (see paragraph [00213]) contained 20 nM cIRES RNA, 20 nM NS5B570n-Con1 enzyme, 0.5 μCi of tritiated UTP (Perkin Elmer catalog no. TRK-412; specific activity: 30 to 60 Ci/mmol;), 1 μM each ATP, CTP, and GTP, 40 mM Tris-HCl pH 8.0, 40 mM NaCl, 4 mM DTT (dithiothreitol), 4 mM MgCl2, 5 μl of compound serial diluted in DMSO, and nuclease-free water to a final reaction volume of 50 μl. Enzymatic reactions in the presence of poly A RNA template (see paragraph [00213]) contained 20 nM Poly A:oligo(rU)16 premixed (see section 0004), 20 nM NS5B570n-Con1 enzyme, 1 μCi of tritiated UTP (Perkin Elmer catalog no. TRK-412; specific activity: 30 to 60 Ci/mmol), 40 mM Tris-HCl pH 8.0, 40 mM NaCl, 4 mM DTT (dithiothreitol), 4 mM MgCl2, 5 μl of compound serial diluted in DMSO, and nuclease-free water to a final reaction volume of 50 μl. Reaction mixtures were assembled in 96-well filter plates (cat #MADVN0B, Millipore Co.) and incubated for 2 h at 30° C. Reactions were stopped by addition of 10% final (v/v) trichloroacetic acid and incubated for 40 min at 4° C. Reactions were filtered, washed with 8 reaction volumes of 10% (v/v) trichloroacetic acetic acid, 4 reaction volumes of 70% (v/v) ethanol, air dried, and 25 μl of scintillant (Microscint 20, Perkin-Elmer) was added to each reaction well.
Two RNA templates were used to assay compounds described herein. The cIRES RNA template was 377 nucleotide long and consisted of a partial complementary sequence (36 nucleotides) of the core protein, followed by 341 nucleotide of the complementary sequence of the internal ribosome entry site. The poly A RNA template (GE Amersham catalog number 27-4110) was a homopolymeric RNA pre-annealed to a oligo(rU)16 primer at a molar ratio of 3-to-1 (primer-template).
The amount of light emitted from the scintillant was converted to counts per minute (CPM) on a Topcount® plate reader (Perkin-Elmer, Energy Range: Low, Efficiency Mode: Normal, Count Time: 1 min, Background Subtract: none, Cross talk reduction: Off).
Data was analyzed in Excel® (Microsoft®) and ActivityBase® (Idbs®). The reaction in the absence of enzyme was used to determine the background signal, which was subtracted from the enzymatic reactions. Positive control reactions were performed in the absence of compound, from which the background corrected activity was set as 100% polymerase activity. All data was expressed as a percentage of the positive control. […]

HCV = conditions: cited from earlier work

O=c1ncn(Cc2ccc(Cl)cc2)c2cc(-c3ccc(OCc4ccccn4)cc3)sc12 [Compound I-28, 1-(4-Chloro-benzyl)-6-[4-(pyridin-2-ylmethoxy)-phenyl]-1H-thieno[3,2-d]pyrimidin-4-one] showed an IC50 [1] of 0.051 µM and a melting point of 233 to 235 °C.
Compound Cc1cc(N)nc(COc2ccc(-c3cc4c(s3)c(=O)ncn4Cc3ccc(Cl)cc3)cc2)n1 [Compound I-45, 6-[4-(4-Amino-6-methyl-pyrimidin-2-ylmethoxy)-phenyl]-1-(4-chloro-benzyl)-1H-thieno[3,2-d]pyrimidin-4-one] has an IC50 [1] of 0.372 µM and a melting point of 272 to 274 °C.
N#Cc1ccc(-c2cc3c(s2)c(=O)ncn3Cc2ccc(Cl)cc2)cc1 [Compound I-52, 4-[1-(4-Chloro-benzyl)-4-oxo-1,4-dihydro-thieno[3,2-d]pyrimidin-6-yl]-benzonitrile] showed an IC50 [1] of 1.6 µM and a melting point greater than 300 °C.
In the case of O=c1ncn(Cc2ccc(Cl)cc2)c2cc(-c3ccc(OCc4cnccn4)cc3)sc12 [Compound I-16, 1-(4-chloro-benzyl)-6-[4-(pyrazin-2-ylmethoxy)-phenyl]-1H-thieno[3,2-d]pyrimidin-4-one], the IC50 [1] is reported as 0.071 µM and the melting point is reported as 236.9 to 239.6 °C.
For NC(=O)c1ncn([C@@H]2O[C@H](CO)[C@@H](O)[C@H]2O)n1 [ribavirin, 1-((2R,3R,4S,5R)-3,4-Dihydroxy-5-hydroxymethyl-tetrahydro-furan-2-yl)-1H-[1,2,4]triazole-3-carboxylic acid amide], the “effect on serum levels of HCV-RNA” value (HCV; monotherapy / sole treatment) is listed as “does not lower serum levels of HCV-RNA” and the “patients with serum amino transferase levels reduced to normal” value (HCV; monotherapy) is listed as 40%.
For O=c1ncn(Cc2ccc(Cl)cc2)c2cc(-c3ccc(OCc4ccccc4)c(Cl)c3)sc12 [Compound I-44, 6-(4-Benzyloxy-3-chloro-phenyl)-1-(4-chloro-benzyl)-1H-thieno[3,2-d]pyrimidin-4-one], the IC50 [1] was 0.03 µM and the melting point was 222 to 224 °C.
Compound O=c1ncn(Cc2ccc(Cl)cc2)c2cc(-c3ccc(OCc4cccnc4)cc3)sc12 [Compound I-50, 1-(4-Chloro-benzyl)-6-[4-(pyridin-3-ylmethoxy)-phenyl]-1H-thieno[3,2-d]pyrimidin-4-one] has an IC50 [1] of 0.103 µM and a melting point of 255 to 257 °C.
With O=c1ncn(Cc2ccc(Cl)cc2)c2cc(-c3ccc(NCc4ccccc4)cc3)sc12 [Compound I-49, 6-(4-Benzylamino-phenyl)-1-(4-chloro-benzyl)-1H-thieno[3,2-d]pyrimidin-4-one] the IC50 [1] was 0.377 µM.
O=C(Nc1ccc(-c2cc3c(s2)c(=O)ncn3Cc2ccc(Cl)cc2)cc1Cl)c1ccccn1 [Compound I-1, Pyridine-2-carboxylic acid {2-chloro-4-[1-(4-chloro-benzyl)-4-oxo-1,4-dihydro-thieno[3,2-d]pyrimidin-6-yl]-phenyl}-amide] showed an IC50 [1] of 0.002 µM.
In the case of O=C(Nc1ccc(-c2cc3c(s2)c(=O)ncn3Cc2ccc(Cl)cc2)cc1)c1ccccn1 [Compound I-39, Pyridine-2-carboxylic acid {4-[1-(4-chloro-benzyl)-4-oxo-1,4-dihydro-thieno[3,2-d]pyrimidin-6-yl]-phenyl}-amide], the IC50 [1] is reported as 0.005 µM.
With Cc1ccc(Cn2cnc(=O)c3sc(-c4ccc(C(C)(C)C)cc4)cc32)cc1 [Compound I-29] the IC50 [1] was 0.223 µM and the melting point was 260.5 to 261.5 °C.
In the case of Cc1ccc(Cn2cnc(=O)c3sc(-c4ccc(-c5cc6ncccn6n5)cc4)cc32)cc1 [Compound I-57, 1-(4-Methyl-benzyl)-6-(4-pyrazolo[1,5-a]pyrimidin-2-yl-phenyl)-1H-thieno[3,2-d]pyrimidin-4-one], the IC50 [1] is reported as 0.108 µM.
O=c1ncn(Cc2ccc(Cl)cc2)c2cc(-c3ccc(SCc4cccnc4)cc3)sc12 [Compound I-51, 1-(4-Chloro-benzyl)-6-[4-(pyridin-3-ylmethylsulfanyl)-phenyl]-1H-thieno[3,2-d]pyrimidin-4-one] gave an IC50 [1] of 0.313 µM.
With Cc1ccc(Cn2cnc(=O)c3sc(-c4ccc(Cl)cc4)cc32)cc1 [Compound I-22] the IC50 [1] was 0.131 µM and the melting point was 244.1 to 247.5 °C.
Cc1ccc(Cn2cnc(=O)c3sc(-c4ccc(CO)cc4)cc32)cc1 [Compound I-53, 6-(4-Hydroxymethyl-phenyl)-1-(4-methyl-benzyl)-1H-thieno[3,2-d]pyrimidin-4-one] showed an IC50 [1] of 0.56 µM.
With Cc1ccc(C(=O)Nc2ccc(-c3cc4c(s3)c(=O)ncn4Cc3ccc(Cl)cc3)cc2)o1 [Compound I-3, 5-Methyl-furan-2-carboxylic acid {4-[1-(4-chloro-benzyl)-4-oxo-1,4-dihydro-thieno[3,2-d]pyrimidin-6-yl]-phenyl}-amide] the IC50 [1] was 0.009 µM.
In the case of O=c1ncn(Cc2ccc(Cl)cc2)c2cc(-c3ccc(OCc4ccncc4)cc3)sc12 [Compound I-58], the IC50 [1] is reported as 0.049 µM and the melting point is reported as 257 to 259 °C.
Nc1nccc(C(=O)Nc2ccc(-c3cc4c(s3)c(=O)ncn4Cc3ccc(Cl)cc3)cc2)n1 [Compound I-8, 2-Amino-pyrimidine-4-carboxylic acid {4-[1-(4-chloro-benzyl)-4-oxo-1,4-dihydro-thieno[3,2-d]pyrimidin-6-yl]-phenyl}-amide] gave an IC50 [1] of 0.026 µM.
With Cc1ccc(Cn2cnc(=O)c3sc(-c4ccccc4)cc32)c(F)c1 [Compound I-21] the IC50 [1] was 0.126 µM and the melting point was 225.1 to 225.8 °C.
For Cc1ccc(Cn2cnc(=O)c3sc(-c4ccc(-c5cc6ncccc6o5)cc4)cc32)cc1 [Compound I-19, 6-(4-Furo[3,2-b]pyridin-2-yl-phenyl)-1-(4-methyl-benzyl)-1H-thieno[3,2-d]pyrimidin-4-one], the IC50 [1] was 0.082 µM.
For O=C(CCCO)Nc1ccc(-c2cc3c(s2)c(=O)ncn3Cc2ccc(Cl)cc2)cc1Cl [Compound I-30, N-{2-Chloro-4-[1-(4-chloro-benzyl)-4-oxo-1,4-dihydro-thieno[3,2-d]pyrimidin-6-yl]-phenyl}-4-hydroxy-butyramide], the IC50 [1] was 0.279 µM.
Work on Nc1cc(C(=O)Nc2ccc(-c3cc4c(s3)c(=O)ncn4Cc3ccc(Cl)cc3)cc2)ccn1 [Compound I-9, 2-Amino-N-{4-[1-(4-chloro-benzyl)-4-oxo-1,4-dihydro-thieno[3,2-d]pyrimidin-6-yl]-phenyl}-isonicotinamide] yielded an IC50 [1] of 0.029 µM.
O=c1ncn(Cc2ccc(Cl)cc2)c2cc(-c3ccc(NCc4ccccn4)cc3)sc12 [Compound I-23] showed an IC50 [1] of 0.139 µM.
CC(CCO)C(=O)Nc1ccc(-c2cc3c(s2)c(=O)ncn3Cc2ccc(Cl)cc2)cc1Cl (stereo not drawn) [Compound I-35] showed an IC50 [1] of 0.517 µM.
Work on O=C(Nc1ccc(-c2cc3c(s2)c(=O)ncn3Cc2ccc(Cl)cc2)cn1)c1ccccn1 [Compound I-41, Pyridine-2-carboxylic acid {5-[1-(4-chloro-benzyl)-4-oxo-1,4-dihydro-thieno[3,2-d]pyrimidin-6-yl]-pyridin-2-yl}-amide] yielded an IC50 [1] of 0.062 µM.
COc1cccc(C(=O)Nc2ccc(-c3cc4c(s3)c(=O)ncn4Cc3ccc(Cl)cc3)cc2Cl)c1 [Compound I-26] showed an IC50 [1] of 0.162 µM.
O=c1ncn(Cc2ccc(Cl)cc2)c2cc(-c3ccc(OCc4ccccn4)c(Cl)c3)sc12 [Compound I-6, 1-(4-chloro-benzyl)-6-[3-chloro-4-(pyridin-2-ylmethoxy)-phenyl]-1H-thieno[3,2-d]pyrimidin-4-one] showed an IC50 [1] of 0.018 µM and a melting point of 272 to 274 °C.
